Experimental data as given in publication PMC10629583, “Specific inhibition of an anticancer target, polo-like kinase 1, by allosterically dismantling its mechanism of substrate recognition” (Proceedings of the National Academy of Sciences of the …, 2023).
Entries after “also recorded” stand apart in the source; their conditions may differ. Like-named read-outs stand apart in the source and are kept apart here. Where no end group is shown, it is not given here. [ ]: non-standard residue; d: D form. pT = C[C@@H](OP(=O)(O)O)[C@H](N)C(=O)O

How the values were obtained:
[1] = Conversion of Allopole to Allopole-A in buffers ± GSH (LC-MS); assay type: physicochemical; conditions: 100 µM Allopole, room temperature, 1 h
Experimental: High-performance liquid chromatography (HPLC)/high-resolution mass spectrometry was used to determine the products derived from investigational drugs incubated under various conditions by measuring their exact masses. Thereafter, 20 μL aliquots of several drug preparations in either DMSO or aqueous reaction solutions were diluted 2:1 in ethanol, followed by centrifugation at 15,000 × g for 5 min. The supernatant was then injected on a Thermo Vanquish liquid chromatograph coupled to a Thermo Q Exactive Orbitrap mass spectrometer (Thermo Fisher Scientific). The conditions for the analysis are listed as follows.
The analytes were identified using the Dmass between the predicted and measured exact monoisotopic mass for the protonated molecular ions applied to the empirical formula algorithm in the Qual Browser application of the Xcalibur software (Themo Scientific). Selected ions from the base peak chromatogram were extracted for integration of peak areas. The relative amounts of each analyte to the sum total were calculated to estimate conversion of and prodrug under the specific conditions to breakdown products.
Table S2. Conversion of Allopole to Allopole-A under various buffer conditions, room
Buffers* Compounds detected
Allopole-A Allopole-A (-S) Allopole (-Cl) Allopole
* Buffer #1: 20 mM Tris (pH 8.0), 50 mM NaCl, 1 mM EDTA, 1% DMSO
Buffer #2: 1 x PBS (pH 7.4), 1 mM EDTA, 1% DMSO
Buffer #3: 20 mM HEPES (pH 7.0), 50 mM NaCl, 1 mM EDTA, 1% DMSO
Samples were prepared by incubating 100 µM of Allopole in the indicated buffer conditions in the
absence or presence of 5 mM GSH for 1 h at room temperature. Note that in the absence of GSH,

Plk1 PBD (PBD1) = molecular target: T1, Plk1 PBD (PBD1) (Homo sapiens, UniProt P53350); test: FP-based inhibition assay, PBD1; assay type: binding; conditions: FP, bacterially expressed purified PBD, FITC-ligand 15 nM, PBD at EC85; read-out: PBD1 IC50 ± SD
T1 construct: constructs expressing PBD1 (residues 345–603) WT (pKM7650); His; TEV site (N); made in house; host or cells: bacteria (E. coli)
Experimental: (§1) FP assays were carried out essentially as described previously ([35], [36]). […] All the samples were analyzed approximately 30 min after reaction in a 384-well format using the SpectraMax Paradigm multimode microplate detection platform (Molecular Devices). Data were analyzed after carrying out at least three independent experiments using GraphPad Prism software version 8.

Plk2 PBD (PBD2) = molecular target: T2, Plk2 PBD (PBD2) (Homo sapiens, UniProt Q9NYY3); test: FP-based inhibition assay, PBD2; assay type: binding; conditions: bacterially expressed purified PBD, FITC-ligand 15 nM, PBD at EC85
T2 construct: Purification of PBD2-His (355–685) (pKM3358) and its S652F mutant (pKM7980); His (C); made in house; host or cells: bacteria (E. coli)
T2 sequence (Q9NYY3 355-685): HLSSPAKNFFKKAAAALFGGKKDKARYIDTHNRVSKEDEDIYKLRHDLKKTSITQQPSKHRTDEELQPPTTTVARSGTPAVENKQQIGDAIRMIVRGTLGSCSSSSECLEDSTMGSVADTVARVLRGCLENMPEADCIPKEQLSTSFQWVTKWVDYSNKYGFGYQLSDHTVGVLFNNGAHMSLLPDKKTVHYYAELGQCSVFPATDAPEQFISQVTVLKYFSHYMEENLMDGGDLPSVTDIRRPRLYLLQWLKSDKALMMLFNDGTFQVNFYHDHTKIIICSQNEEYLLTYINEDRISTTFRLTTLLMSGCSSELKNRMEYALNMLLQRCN
Experimental: as §1

Plk3 PBD (PBD3) = molecular target: T3, Plk3 PBD (PBD3) (Homo sapiens, UniProt Q9H4B4); test: FP-based inhibition assay, PBD3; assay type: binding; conditions: bacterially expressed purified PBD, FITC-ligand 15 nM, PBD at EC85
T3 construct: MBP-PBD3-His (335–646) (pKM3359) and its A612F (pKM7981); His (C); made in house; host or cells: bacteria (E. coli)
T3 sequence (Q9H4B4 335-646): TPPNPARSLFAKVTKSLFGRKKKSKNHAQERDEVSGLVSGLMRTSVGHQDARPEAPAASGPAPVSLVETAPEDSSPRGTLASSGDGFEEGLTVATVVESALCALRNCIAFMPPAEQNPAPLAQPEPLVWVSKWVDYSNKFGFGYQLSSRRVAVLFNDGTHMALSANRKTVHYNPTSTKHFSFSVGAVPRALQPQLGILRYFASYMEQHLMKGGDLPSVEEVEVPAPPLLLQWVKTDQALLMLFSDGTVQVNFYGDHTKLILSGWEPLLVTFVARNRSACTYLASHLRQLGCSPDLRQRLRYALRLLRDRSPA
Experimental: FP assays were carried out essentially as described previously ([35], [36]). FITC-conjugated ligands (15 nM) were mixed with PBDs at their EC85 concentrations. All the samples were analyzed approximately 30 min after reaction in a 384-well format using the SpectraMax Paradigm multimode microplate detection platform (Molecular Devices). Data were analyzed after carrying out at least three independent experiments using GraphPad Prism software version 8.

[2] = Solubility in PBS (imaging of insoluble particles, dynamic light scattering); assay type: physicochemical; conditions: PBS buffer (pH 7.4)
Experimental: All samples were analyzed after adjusting the concentration to 100 μM solution in the PBS buffer (pH 7.4) containing 1% DMSO. The measurements were carried out at 25 °C using the DynaPro NanoStar system (Wyatt Technology). The intensity of the scattered light was measured as a function of time, and the resulting data were used to calculate the size and distribution of the particles in the sample. Collected data were analyzed using the DYNAMICS software to calculate the mean size and polydispersity index of the particles in the sample. At least three repeat measurements were performed to ensure that the results were accurate and reproducible.
Fig. S1. Solubility and activity of Allopole and its related compounds. (A) Images showing insoluble
particles of 200 µM of the indicated compounds dissolved in the PBS buffer. The aggregates of […]

full-length Plk1 [3] = molecular target: T4, full-length Plk1 (Homo sapiens, UniProt P53350); conditions: total lysates from HEK293A cells expressing full-length Plk1; ref Park, J.E., et al. (1); read-out: Anti-Plk1 (full length) ELISA (IC50) Mean ± SEM; cited from earlier work
T4 construct: expressed in transfected cells; host or cells: HEK293A cells infected with adenovirus; total lysate

L363 cells [4] = test system: L363 cells; set-up: method as in Park, J.E., et al. (1); conditions: MTS, 48 h treatment, ref Park, J.E., et al. (1), cited from earlier work
full-length Plk1 [5] = molecular target: T4, full-length Plk1; test: ELISA-based PBD1-binding inhibition assay; conditions: total lysates from HEK293A cells expressing full-length Plk1; biotinylated PBIP1 p-T78 peptide; read-out: Anti-Plk1 (full length) ELISA (IC50) Mean ± SEM
L363 cells [6] = test: MTS cell viability assay, L363 cells; assay type: cell-based; conditions: 48 h treatment, read-out: Cell efficacy (GI50) Mean ± SD
human His-Plk1 = molecular target: T5, human His-Plk1 (Homo sapiens, UniProt P53350); test: In vitro Plk1 kinase assay (casein, 32P); assay type: biochemical; conditions: casein substrate
T5 construct: His (N); purchased Sino Biological; host or cells: Sf9
Experimental: Kinase reactions were carried out in two steps. First, Sf9-purified 0.2 µg of human His-Plk1 (Sino Biological) was preincubated in a kinase cocktail [50 mM Tris-Cl (pH 7.5), 10 mM MgCl2, 2 mM dithiothreitol, 2 mM EGTA, and 27 mM p-nitrophenylphosphate] in the presence of either Allopole-A or p-13mer PBIP peptide for 20 min at 25 °C. The samples were then added with 1 µg of dephosphorylated casein (Sigma) and 1.25 µM of ATP (1.25 µCi of [γ^32P] ATP, 1Ci = 37 GBq) and reacted for additional 30 min at 30 °C. The reactions were terminated by the addition of 5× Laemmli SDS sample buffer, separated by 10% SDS-PAGE, and analyzed by autoradiography. To quantify the γ^32P signals, appropriate bands were excised from dried SDS-PAGE gels and analyzed by a liquid scintillation counter (Beckman model LS 6500).

[7] = Buffer #1 (20 mM Tris pH 8.0), no GSH
[8] = Buffer #2 (1 x PBS pH 7.4), no GSH
[9] = Buffer #3 (20 mM HEPES pH 7.0), no GSH

T4 sequence (P53350 whole entry): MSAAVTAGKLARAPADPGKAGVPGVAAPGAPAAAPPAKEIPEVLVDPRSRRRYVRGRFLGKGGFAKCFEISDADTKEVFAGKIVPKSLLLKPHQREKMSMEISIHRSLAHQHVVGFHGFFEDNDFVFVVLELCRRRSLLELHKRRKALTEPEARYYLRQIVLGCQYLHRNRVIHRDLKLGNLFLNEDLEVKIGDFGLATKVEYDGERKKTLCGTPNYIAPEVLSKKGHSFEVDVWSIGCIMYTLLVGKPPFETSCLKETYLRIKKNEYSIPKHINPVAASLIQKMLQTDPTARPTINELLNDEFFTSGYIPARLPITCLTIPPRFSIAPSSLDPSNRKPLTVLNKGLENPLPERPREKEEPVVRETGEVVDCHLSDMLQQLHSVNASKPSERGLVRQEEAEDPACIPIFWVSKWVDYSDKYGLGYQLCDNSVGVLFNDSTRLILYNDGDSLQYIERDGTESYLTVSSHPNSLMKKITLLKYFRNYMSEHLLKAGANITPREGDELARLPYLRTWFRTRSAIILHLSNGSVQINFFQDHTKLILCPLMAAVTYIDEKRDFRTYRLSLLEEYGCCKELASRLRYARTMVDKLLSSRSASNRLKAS
T1 sequence (P53350 345-603): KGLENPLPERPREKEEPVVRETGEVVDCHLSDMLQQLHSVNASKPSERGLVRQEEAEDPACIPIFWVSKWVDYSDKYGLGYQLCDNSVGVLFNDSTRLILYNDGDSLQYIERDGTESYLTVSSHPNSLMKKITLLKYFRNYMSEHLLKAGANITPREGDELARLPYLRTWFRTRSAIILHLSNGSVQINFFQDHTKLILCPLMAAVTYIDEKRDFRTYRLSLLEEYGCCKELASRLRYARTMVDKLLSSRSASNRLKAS
T5 sequence (P53350 whole entry): as the sequence (P53350 whole entry) above

With `Cn1cnc([N+](=O)[O-])c1Sc1nnc2n(CC3CC3)c(=O)c3sccc3n12` [Allopole (-Cl)] the “Compounds detected” value [1, 7] was 0.0 µmol/L, the “Compounds detected, % of total” value [1, 7] was 0.0% and the “Compounds detected, pk area” value [1, 7] was 4.85E+04. For the same molecule, the “Compounds detected” value ([1]; Buffer #1 + 5 mM GSH) was 0.5 µmol/L, the “Compounds detected, % of total” value ([1]; Buffer #1 + 5 mM GSH) was 0.5% and the “Compounds detected, pk area” value ([1]; Buffer #1 + 5 mM GSH) was 6.89E+06. For the same molecule, the “Compounds detected” value [1, 8] was 0.0 µmol/L, the “Compounds detected, % of total” value [1, 8] was 0.0% and the “Compounds detected, pk area” value [1, 8] was 2.42E+04. The “Compounds detected” value ([1]; Buffer #2 + 5 mM GSH) was 0.3 µmol/L, the “Compounds detected, % of total” value ([1]; Buffer #2 + 5 mM GSH) was 0.3% and the “Compounds detected, pk area” value ([1]; Buffer #2 + 5 mM GSH) was 2.57E+06. For the same molecule, the “Compounds detected” value [1, 9] was 0.0 µmol/L, the “Compounds detected, % of total” value [1, 9] was 0.0% and the “Compounds detected, pk area” value [1, 9] was 0.00E+00. For the same molecule, the “Compounds detected” value ([1]; Buffer #3 + 5 mM GSH) was 0.4 µmol/L, the “Compounds detected, % of total” value ([1]; Buffer #3 + 5 mM GSH) was 0.4% and the “Compounds detected, pk area” value ([1]; Buffer #3 + 5 mM GSH) was 1.11E+06.

With `CCCn1c(=O)c2sc(C)cc2n2c(=S)[nH]nc12` [compound 3] the IC50 (Plk1 PBD (PBD1)) was 0.0102 µM, the “PBD2 IC50 ± SD” value (Plk2 PBD (PBD2)) was “N. S” and the “PBD3 IC50 ± SD” value (Plk3 PBD (PBD3)) was “N. S”. For the same molecule, the “Solubility (in words)” value [2] was “lower-than-acceptable solubility”, the IC50 (full-length Plk1 [3]) was 2.15 µM and the “Cell efficacy (GI50) Mean ± SD” value (L363 cells [4]) was “failed to induce any significant antiproliferation effect; also recorded: N. S”.

In the case of `CCCn1c(=O)c2sc(C)cc2n2c(Sc3c([N+](=O)[O-])ncn3C)nnc12` [compound 4], the “Solubility (in words)” value [2] is given as “lower-than-acceptable solubility; also recorded: low solubility”, the IC50 (full-length Plk1 [3]) is given as > 50 µM and the GI50 (L363 cells [4]; read-out: Cell efficacy (GI50) Mean ± SD) is given as 4.88 ± 0.1 µM.

For `CCCn1c(=O)c2oc3ccccc3c2n2c(Sc3c([N+](=O)[O-])ncn3C)nnc12` [compound 8], the IC50 (full-length Plk1 [5]) was > 50 µM and the GI50 (L363 cells [6]) was 8.31 ± 0.56 µM.

With `CCCn1c(=O)c2oc3cccc(F)c3c2n2c(Sc3c([N+](=O)[O-])ncn3C)nnc12` [compound 10] the IC50 (full-length Plk1 [5]) was > 50 µM and the GI50 (L363 cells [6]) was 7.53 ± 0.43 µM.

In the case of `CCCn1c(=O)c2sccc2n2c(Sc3c([N+](=O)[O-])ncn3C)nnc12` [compound 12], the IC50 (full-length Plk1 [5]) is reported as > 50 µM, the GI50 (L363 cells [6]) is reported as 8.4 ± 0.74 µM and the “Solubility (in words)” value [2] is reported as “moderately; also recorded: moderate”.

In the case of `CCCn1c(=O)c2sc(Cl)cc2n2c(Sc3c([N+](=O)[O-])ncn3C)nnc12` [compound 14], the IC50 (full-length Plk1 [5]) is reported as > 50 µM and the GI50 (L363 cells [6]) is reported as 6.04 ± 0.17 µM.

For `CCCn1c(=O)c2sc(C(C)(C)C)cc2n2c(Sc3c([N+](=O)[O-])ncn3C)nnc12` [compound 16], the IC50 (full-length Plk1 [5]) was > 50 µM, the GI50 (L363 cells [6]) was 4.19 ± 0.15 µM and the “Solubility (in words)” value [2] was “moderately; also recorded: moderate”.

With `CCCn1c(=O)c2sc3ccccc3c2n2c(Sc3c([N+](=O)[O-])ncn3C)nnc12` [compound 18] the IC50 (full-length Plk1 [5]) was > 50 µM and the GI50 (L363 cells [6]) was 7.05 ± 0.27 µM.

With “CETFDPPLHSpTAI (CETFDPPLHS[pT]AI) [p-13mer, phospho-13mer ligand derived from the PBIP1 p-T78 motif, reference compound]” the “Effect on His-Plk1 kinase activity in vitro (in words)” value (human His-Plk1) was “increased it”.
